Here are results for 4 molecules from patent US20230158158A1, “PYRAZOLO QUINAZOLINE DERIVATIVE COMPOUNDS INDUCING SELECTIVE DEGRADATION OF PLK1” (UPPTHERA, priority 2020, published 2023).

Broadly, the Dmax is the largest share of the target that was removed.

T1 sequence (P53350 whole entry): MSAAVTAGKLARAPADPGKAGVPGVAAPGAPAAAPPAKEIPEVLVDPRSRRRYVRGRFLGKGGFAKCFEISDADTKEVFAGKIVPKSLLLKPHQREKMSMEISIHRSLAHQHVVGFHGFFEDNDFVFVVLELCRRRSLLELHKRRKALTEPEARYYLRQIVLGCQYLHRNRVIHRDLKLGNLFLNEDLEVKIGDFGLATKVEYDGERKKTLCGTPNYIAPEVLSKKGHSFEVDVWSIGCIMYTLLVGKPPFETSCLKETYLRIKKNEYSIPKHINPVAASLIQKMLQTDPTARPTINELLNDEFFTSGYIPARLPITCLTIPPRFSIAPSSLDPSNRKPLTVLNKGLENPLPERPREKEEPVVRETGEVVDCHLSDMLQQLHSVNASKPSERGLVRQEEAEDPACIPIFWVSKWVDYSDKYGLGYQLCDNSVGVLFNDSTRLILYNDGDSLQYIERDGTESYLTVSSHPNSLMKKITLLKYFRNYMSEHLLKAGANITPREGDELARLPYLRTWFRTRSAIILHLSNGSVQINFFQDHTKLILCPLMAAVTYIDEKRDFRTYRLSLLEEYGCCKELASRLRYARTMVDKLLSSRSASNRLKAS

The assay concerns the target T1, PLK1 (Homo sapiens, UniProt P53350).
T1 construct: endogenous in cells; host or cells: HeLa
The experiment in a line: PLK1 protein degradation by western blotting in HeLa cells. The format is cell-based. Conditions: thymidine block and release, compound 100 nM, 6 hours, PLK1/GAPDH ratio, read-out: PLK1 protein degradability (Dmax). The method, then: The HeLa cell line was purchased from Korea Cell Line Bank (KCLB), Seoul, Korea. The passage in cell culture was maintained at P115 to P125.
2×10^5 cells were seeded for each well of a 12-well plate (SPL), and the cells were cultured in the culture medium in a total volume of 2 ml.
The compounds of Examples were completely dissolved in DMSO and used in the experiment, and thymidine was completely dissolved in DW and used in the experiment. For thymidine block, the products were treated with 2 mM of thymidine (Sigma-Aldrich Cat. No. T9250-5G) and then incubated for 24 hours.
For release and chemical treatment, the medium was suctioned and washed 3 times with 1×PBS. Complete media was added, followed by incubation for 4 hours in a CO2 incubator. Each compound was treated according to the concentration of 100 nM and then incubated for 6 hours again.
For SDS-PAGE and Western blotting, 1×RIPA lysis buffer (Rockland, Cat. No. MB-030-0050; Lot no. 39751), 100× Protease Inhibitor Cocktail (Quartett, Cat. No. PPI1015; Lot no. PC050038424), Pierce ? BCA protein assay kit (ThermoScientific, Cat. No. 23225; Lot no. UC276876), albumin standard (ThermoScientific, Cat. No. 23209; Lot no. UB269561), 4-15% Mini-PROTEAN TGX stain-free gel (Bio-rad, Cat. No. 4568085; Lot no. L007041B), 10× Tris/Glycine/SDS buffer (Bio-rad, Cat. No. 1610732; Lot no. 10000044375B); 10×TBS (Bio-rad, Cat. No. 1706435; Lot no. 1000045140B), 10% Tween 20 (Cat. No. 1610781; Lot no. L004152B), Color protein standard broad range (NEB, Cat. No. P7719S; Lot no. 10040349), 4× Laemmli sample buffer (Bio-rad, Cat. No. 1610747; Lot no. L004133B), β-mercaptoethanol (Sigma-Aldrich, Cat. No. M3148; Lot no. 60-24-2), SuperBlock ? T20 (TBS) blocking buffer (ThermoScientific, Cat. No. 37536; Lot no. UC282578), 1M sodium azide solution (Sigma-Aldrich, Cat. No. 08591-1 mL-F; Lot no. BCBV4989), α-Rabbit pAb to Ms IgG (abcam, Cat. No. ab97046; Lot no. GR3252115-1), α-Goat pAb to Rb IgG (CST, Cat. No. 7074S; Lot no. 28), α-GAPDH (abeam, Cat. No. ab8245; Lot no. GR3275542-2), α-Plk1 (CST, Cat. No. 208G4), α-BRD4 (CST, Cat. No. 13440S), ECL ? Prime western blotting reagents (GE Healthcare, Cat. No. RPN2232; Lot no. 17001655), Ponceau S solution (Sigma-Aldrich, Cat. No. P7170; Lot no. SLBV4112), Difco ? […]
Then, a standard curve was obtained using the BCA assay, and the protein mass in the lysate was quantified by substituting the curve equation. The mixture was incubated at 37° C. for 30 minutes using 20 μL of standard or sample solution, and 200 μL of BCA or Bradford solution, and measured at 562 nm absorbance. Samples were prepared by adding 4× sample buffer so that the quantity of protein added to each well was 15 μg. […]
In general terms: In western blotting, separated proteins are transferred to a membrane and probed.
Take `COc1c(Nc2ncc3c(n2)-c2c(c(C(N)=O)nn2C)CC3)cc(N2CCN(C)CC2)cc1C(=O)NCCOCCOCCNc1cccc2c1C(=O)N(C1CCC(=O)NC1=O)C2=O` (stereo not shown) [Compound 2, 8-((3-((2-(2-(2-((2-(2,6-dioxopiperidin-3-yl)-1,3-dioxoisoindolin-4-yl)amino)ethoxy)ethoxy)ethyl)carbamoyl)-2-methoxy-5-(4-methylpiperazin-1-yl)phenyl)amino)-1-methyl-4,5-dihydro-1H-pyrazolo[4,3-h]quinazoline-3-carboxamide]: the Dmax at 0.1 µM is at least 60%.

`Cn1nc(C(N)=O)c2c1-c1nc(Nc3cc(N4CCN(CCOCCOCCOCCOCCNc5cccc6c5C(=O)N(C5CCC(=O)NC5=O)C6=O)CC4)ccc3OC(F)(F)F)ncc1CC2` (stereo not shown) [Compound 7, 8-((5-(4-(14-((2-(2,6-dioxopiperidin-3-yl)-1,3-dioxoisoindolin-4-yl)amino)-3,6,9,12-tetraoxatetradecyl)piperazin-1-yl)-2-(trifluoromethoxy)phenyl)amino)-1-methyl-4,5-dihydro-1H-pyrazolo[4,3-h]quinazoline-3-carboxamide]: the Dmax at 0.1 µM is at least 60%. The same measure for `COc1c(Nc2ncc3c(n2)-c2c(c(C(N)=O)nn2C)CC3)cc(N2CCN(C)CC2)cc1C(=O)NCCOCCOCC(=O)N[C@H](C(=O)N1C[C@H](O)C[C@H]1C(=O)NCc1ccc(-c2scnc2C)cc1)C(C)(C)C` [Compound 9, 8-((3-((2-(2-(2-(((S)-1-((2S,4R)-4-hydroxy-2-((4-(4-methylthiazol-5-yl)benzyl)carbamoyl)pyrrolidin-1-yl)-3,3-dimethyl-1-oxobutan-2-yl)amino)-2-oxoethoxy)ethoxy)ethyl)carbamoyl)-2-methoxy-5-(4-methylpiperazin-1-yl)phenyl)amino)-1-methyl-4,5-dihydro-1H-pyrazolo[4,3-h]quinazoline-3-carboxamide]: at least 60%; for `COc1c(Nc2ncc3c(n2)-c2c(c(C(N)=O)nn2C)CC3)cc(N2CCN(C)CC2)cc1C(=O)NCCOCCOCCOCCNc1cccc2c1C(=O)N(C1CCC(=O)NC1=O)C2=O` (stereo not shown) [Compound 3, 8-((3-((2-(2-(2-(2-((2-(2,6-dioxopiperidin-3-yl)-1,3-dioxoisoindolin-4-yl)amino)ethoxy)ethoxy)ethoxy)ethyl)carbamoyl)-2-methoxy-5-(4-methylpiperazin-1-yl)phenyl)amino)-1-methyl-4,5-dihydro-1H-pyrazolo[4,3-h]quinazoline-3-carboxamide]: at least 60%.
